# PubChem BioAssay (NCI)
#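 Grown in 96-well plates, cells were treated for 48 hours with each compound at five concentrations. Insufficient inhibition: endpoint recorded as highest concentration tested. GI50: concentration for 50% inhibition of growth. TGI denotes the concentration required for complete inhibition of growth.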
# Key:
# Test in all cases: inhibition of tumour cell growth, NCI panel, 48 h
# [1] = tested on: A498 renal
# [2] = tested on: MALME-3M melanoma
# [3] = tested on: MOLT-4 leukemia
# [4] = tested on: OVCAR-3 ovarian
# [5] = tested on: SR leukemia
# [6] = tested on: UACC-257 melanoma
# [7] = tested on: UACC-62 melanoma
# [8] = tested on: UO-31 renal
# [9] = tested on: BT-549 breast
# [10] = tested on: DU-145 prostate
Structure (SMILES),TGI [1],TGI [2],TGI [3],TGI [4],TGI [5],TGI [6],TGI [7],TGI [8],GI50 [3],GI50 [4],GI50 [7],GI50 [1],GI50 [9],TGI [9],GI50 [10],TGI [10],GI50 [2],GI50 [6],GI50 [8],GI50 [5]
NCP(=O)(O)OCC(=O)O,> 100 µM,> 100 µM,> 100 µM,> 100 µM,> 100 µM,> 100 µM,> 100 µM,> 100 µM,–,–,–,–,–,–,–,–,–,–,–,–
Cn1ccnc1C[N-]Cc1nccn1C.O=[N+]([O-])[O-].O=[N+]([O-])[O-].[Cu+2],–,–,> 100 µM,> 100 µM,–,–,> 100 µM,–,> 100 µM,> 100 µM,25.8 µM,–,–,–,–,–,–,–,–,–
CC(=O)CC(=O)/C=C/c1cccs1,> 100 µM,> 100 µM,> 100 µM,> 100 µM,> 100 µM,> 100 µM,> 100 µM,> 100 µM,–,–,–,–,–,–,–,–,–,–,–,–
COC(=O)C1CC(C(=O)OC)c2nc3cc(C)c(C)cc3nc21 (configuration not stated),> 100 µM,> 100 µM,> 100 µM,> 100 µM,–,> 100 µM,> 100 µM,> 100 µM,–,–,–,–,–,–,–,–,–,–,–,–
CC(=O)N1CCN(CCOc2ccc(C3CCN(C4=Nn5c(nnc5C(F)(F)F)CC4)CC3)cc2)CC1,> 89.8 µM,99.6 µM,> 100 µM,> 100 µM,–,> 100 µM,> 100 µM,> 100 µM,27 µM,20.8 µM,2.84 µM,12.8 µM,26.2 µM,> 100 µM,63 µM,> 100 µM,9.89 µM,26 µM,4.75 µM,–
CN(C)CCNc1nc(-c2cccs2)cc(-c2cccs2)n1,25.4 µM,30.9 µM,13.4 µM,48.7 µM,15.4 µM,24.2 µM,37.4 µM,23.6 µM,–,–,–,–,–,–,–,–,–,–,–,–
CCc1nc(-n2c(-c3ccccc3)nc3ccccc3c2=O)nc(N)c1-c1ccc(Cl)cc1,92.7 µM,> 100 µM,> 100 µM,30.7 µM,–,> 100 µM,> 100 µM,> 100 µM,6.13 µM,0.554 µM,6.55 µM,25 µM,90.7 µM,> 100 µM,72.6 µM,> 100 µM,23.9 µM,40.3 µM,48.6 µM,–
COc1ccc2nc3cccc(C(=O)NCCN(C)C)c3nc2c1,3.34 µM,2.69 µM,1.19 µM,5.89 µM,> 100 µM,7.74 µM,–,> 100 µM,–,–,–,–,–,–,–,–,–,–,–,–
C1C[OH+]CC[OH+]CC[OH+]CC[OH+]CC[OH+]CC[OH+]1.[Cl-].[Nb+5],> 100 µM,> 100 µM,> 100 µM,> 100 µM,–,> 100 µM,> 100 µM,> 100 µM,> 100 µM,> 100 µM,> 100 µM,> 100 µM,–,–,–,–,> 100 µM,> 100 µM,68.6 µM,–
Cc1ccc(NC(=O)CCC(=O)C(C#N)c2ccccc2)cc1C (configuration not stated),> 100 µM,> 100 µM,> 100 µM,> 100 µM,–,> 100 µM,> 100 µM,> 100 µM,–,–,–,–,–,–,–,–,–,–,–,–
CC(=O)O[C@H]1C=CC23OC(=O)[C@]1(C)[C@H]2[C@H](C(=O)O)C12CC(=O)[C@@](CO)(CC[C@H]13)C2,–,–,> 100 µM,> 100 µM,> 100 µM,> 100 µM,> 100 µM,> 100 µM,–,–,–,–,–,–,–,–,–,–,–,–
NC(=O)N/N=C(/c1nc2ccc([N+](=O)[O-])cc2[nH]c1=O)C(O)c1ccco1 (configuration not stated),–,> 100 µM,> 100 µM,> 100 µM,> 100 µM,> 100 µM,> 100 µM,> 100 µM,–,–,–,–,–,–,–,–,–,–,–,–
COc1cc([C@@H]2c3cc4c(cc3C[C@H]3COC(=O)[C@@H]32)OCO4)cc2c1OCO2,–,> 100 µM,> 100 µM,< 0.01 µM,< 0.01 µM,–,> 100 µM,> 100 µM,–,–,–,–,–,–,–,> 100 µM,–,–,–,–
CCOC(=O)/N=c1/nc(N(C)C)ss1,> 100 µM,> 100 µM,> 100 µM,–,> 100 µM,> 100 µM,> 100 µM,> 100 µM,–,–,–,–,–,–,–,–,–,–,–,–
NS(=O)(=O)c1ccc(NC(=O)COC(=O)c2cccc3c(=O)c4ccccc4[nH]c23)cc1,51.8 µM,50.5 µM,> 47.2 µM,47.6 µM,19.7 µM,> 100 µM,34.7 µM,> 87 µM,–,–,–,–,–,–,–,–,–,–,–,–
COc1ccc2c(c1)OCCC1=C2SCC2(C)CCN=C12 (configuration not stated),–,–,> 100 µM,> 100 µM,–,–,> 100 µM,–,–,–,–,–,–,–,–,–,–,–,–,–
C#Cc1cc2c(N)c(C(=O)c3cc(OC)c(OC)c(OC)c3)[nH]c2cc1OC,16.9 µM,> 100 µM,95.2 µM,–,> 100 µM,> 100 µM,> 100 µM,56.1 µM,0.903 µM,–,2.77 µM,0.487 µM,–,–,1.2 µM,> 100 µM,0.434 µM,0.532 µM,0.722 µM,381 nM

Structure (SMILES),TGI [1],TGI [2],TGI [3],TGI [4],TGI [5],TGI [6],TGI [7],TGI [8],GI50 [3],GI50 [4],GI50 [7],GI50 [1],GI50 [9],TGI [9],GI50 [10],TGI [10],GI50 [2],GI50 [6],GI50 [8],GI50 [5]
CC(=O)n1ccc2c(Cl)ncnc21,> 100 µM,–,> 100 µM,> 100 µM,> 100 µM,> 100 µM,> 100 µM,> 100 µM,–,–,–,–,–,–,–,–,–,–,–,–
COC(=O)C1C2CC3C(OC(=O)C31)C2OC(=O)[C@](OC)(c1ccccc1)C(F)(F)F (some centres not stated),> 100 µM,> 100 µM,> 100 µM,> 100 µM,> 100 µM,> 100 µM,–,> 100 µM,–,–,–,–,–,–,–,–,–,–,–,–
CN(C)CC1CCCC/C1=N/OC(=O)c1ccc(Cl)c(Cl)c1 (configuration not stated),> 100 µM,> 100 µM,–,> 100 µM,> 100 µM,> 100 µM,> 100 µM,> 100 µM,–,–,–,–,–,–,–,–,–,–,–,–
N#C/C(=C\c1ccccc1Br)C(=O)c1ccccc1,> 100 µM,> 100 µM,52.8 µM,> 69.2 µM,> 83.8 µM,> 100 µM,87.5 µM,> 53.9 µM,–,–,–,–,–,–,–,–,–,–,–,–
COC(=O)Cc1nc2ccccc2o1,> 100 µM,> 100 µM,> 100 µM,> 100 µM,> 100 µM,> 100 µM,49.3 µM,> 100 µM,–,–,–,–,–,–,–,–,–,–,–,–
COc1ccc(C(=O)O/N=C2/CCC/C2=C\c2ccccc2)cc1,> 100 µM,> 100 µM,> 100 µM,> 100 µM,> 100 µM,> 100 µM,> 100 µM,> 100 µM,–,–,–,–,–,–,–,–,–,–,–,–
C[n+]1c(N)n(C(=O)OCc2ccccc2)c(=O)c2c1ncn2C(=O)OCc1ccccc1,> 100 µM,> 100 µM,> 100 µM,> 100 µM,–,> 100 µM,> 100 µM,62.9 µM,–,–,–,–,–,–,–,–,–,–,–,–
CC(C)(C)C(=O)OCc1nc2cc3c(cc2c(=O)[nH]1)CCC3=O,> 100 µM,> 100 µM,> 100 µM,> 100 µM,–,> 100 µM,> 100 µM,> 100 µM,> 100 µM,> 100 µM,> 100 µM,> 100 µM,> 100 µM,> 100 µM,> 100 µM,> 100 µM,> 100 µM,> 100 µM,> 100 µM,–
C#CCN(Cc1nc2cc(C(F)(F)F)ccc2nc1-c1ccccc1)c1ccc(F)c(F)c1,> 100 µM,–,> 100 µM,61.8 µM,–,64.9 µM,> 100 µM,> 100 µM,30.3 µM,13.9 µM,44.5 µM,39.9 µM,53.1 µM,> 100 µM,37.3 µM,> 100 µM,–,40.5 µM,36.1 µM,–
C[N+](C)(C)CC1CCCC/C1=N\O (configuration not stated),> 100 µM,> 100 µM,> 100 µM,> 100 µM,–,> 100 µM,> 100 µM,> 100 µM,–,–,–,–,–,–,–,–,–,–,–,–
CC1=C(C(=O)Nc2ccccc2)C(c2ccc(C(C)C)cc2)C(C(=O)Nc2ccccc2)=C(C)N1,> 72.3 µM,30.2 µM,57.5 µM,56.3 µM,55.5 µM,–,35 µM,46.6 µM,–,–,–,–,–,–,–,–,–,–,–,–
Nc1nc(N)c(-c2ccccc2)c(CCC(=O)Nc2ccc(Cl)cc2)n1,> 100 µM,> 100 µM,> 100 µM,> 100 µM,> 100 µM,> 100 µM,> 100 µM,> 100 µM,–,–,–,–,–,–,–,–,–,–,–,–
COc1cc2c(cc1OC)-c1ncc3cc4c(cc3c1C2)OCO4,–,–,20.4 µM,> 100 µM,15.3 µM,> 100 µM,> 100 µM,63.7 µM,4.14 µM,61.2 µM,> 100 µM,–,–,–,25.3 µM,53.6 µM,–,48.4 µM,23.1 µM,2700 nM
O=C(/C(=C/c1ccccc1)c1ccccc1)N1c2ccccc2CC1c1c[nH]c2ccccc12 (configuration not stated),> 100 µM,> 100 µM,49.7 µM,89.6 µM,> 100 µM,> 100 µM,> 100 µM,> 100 µM,–,–,–,–,–,–,–,–,–,–,–,–
CC(C)(C)OC(=O)N1N=NC2C3OC(CC3=O)C21 (configuration not stated),> 100 µM,> 100 µM,> 100 µM,> 100 µM,> 100 µM,> 100 µM,> 100 µM,> 100 µM,–,–,–,–,–,–,–,–,–,–,–,–
N#Cc1cccc(OCc2ccccc2COc2cccc(C#N)c2)c1,–,38 µM,> 100 µM,–,–,> 100 µM,73 µM,> 100 µM,> 100 µM,–,18.3 µM,–,36.7 µM,93.3 µM,25.9 µM,99.1 µM,4.02 µM,> 100 µM,51.3 µM,–
